Reference: patent US11149021B2, “N-(azaaryl)cyclolactam-1-carboxamide derivative, preparation method therefor, and use thereof” (Abbisko Therapeutics Co., Ltd., priority 2017, dated 2021)
Where two headings read alike, the source gives them in different places.

Assays:
CSF-1R = target: T1, CSF-1R (Homo sapiens, UniProt P07333); assay: CSF-1R in vitro biochemical kinase study (ADP-Glo assay)
T1 construct: 3.95 nM of CSF-1R, 500 μM of ATP

[1] = tested on: M-NFS-60 mouse myeloid leukemia lymphocytes; assay: CSF-1R cell proliferation study (Cell Titer Glo); type: cell-based; details: Lymphocyte, 72 h;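 note: M-CSF-driven proliferation, viable cells quantified as ATP by luminescence, compounds tested as 3-fold serial dilutions, values from four-parameter curve fits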
Protocol: Functional effects of compounds on cell proliferation were evaluated by using Cell Titer Glo (CTG) study in the present invention. […] Since ATP is an index for viable cell metabolism, CTG (Promega, #G7573) reagent is a homogeneous detection method for detecting the number of viable cells in the culture by quantifying ATP. Therefore, compound-mediated inhibition for cell proliferation/survival was evaluated by quantifying ATP content in cells, and the specific experimental process was as follows:
3. 10 μL of culture medium containing M-CSF with 10-fold of the final concentration was then added to each well;
4. dosage effect was evaluated by testing the 3-fold serial dilutions of the compound;
5. after the cells were incubated for 3 days at 37° C. and 5% CO2, the inhibition on cell survival was quantified after 50 μL of CTG was added and the luminescence assay was performed;
6. the compound concentration leading to half maximal inhibitory (IC50) and the compound concentration leading to absolute half maximal inhibitory (Absolute IC50) was measured by a plate reader (M1000, Tecan) and a four-parameter curve fit in Graphpad Prism 7.

[2] = read-out: Cytological experiment CS1-1R Absolute IC50 (nM)
[3] = read-out: Cytological experiment CSF-1R IC50 (nM)
[4] = M-NFS-60 cells, M-CSF, 3 days, CTG, * = average of multiple tests, read-out: Cytological experiment CSF-1R IC50
[5] = M-NFS-60 cells, M-CSF, 3 days, CTG, absolute half maximal inhibition, * = average of multiple tests, read-out: Cytological experiment CS1-1R Absolute IC50

T1 sequence (P07333 20-972): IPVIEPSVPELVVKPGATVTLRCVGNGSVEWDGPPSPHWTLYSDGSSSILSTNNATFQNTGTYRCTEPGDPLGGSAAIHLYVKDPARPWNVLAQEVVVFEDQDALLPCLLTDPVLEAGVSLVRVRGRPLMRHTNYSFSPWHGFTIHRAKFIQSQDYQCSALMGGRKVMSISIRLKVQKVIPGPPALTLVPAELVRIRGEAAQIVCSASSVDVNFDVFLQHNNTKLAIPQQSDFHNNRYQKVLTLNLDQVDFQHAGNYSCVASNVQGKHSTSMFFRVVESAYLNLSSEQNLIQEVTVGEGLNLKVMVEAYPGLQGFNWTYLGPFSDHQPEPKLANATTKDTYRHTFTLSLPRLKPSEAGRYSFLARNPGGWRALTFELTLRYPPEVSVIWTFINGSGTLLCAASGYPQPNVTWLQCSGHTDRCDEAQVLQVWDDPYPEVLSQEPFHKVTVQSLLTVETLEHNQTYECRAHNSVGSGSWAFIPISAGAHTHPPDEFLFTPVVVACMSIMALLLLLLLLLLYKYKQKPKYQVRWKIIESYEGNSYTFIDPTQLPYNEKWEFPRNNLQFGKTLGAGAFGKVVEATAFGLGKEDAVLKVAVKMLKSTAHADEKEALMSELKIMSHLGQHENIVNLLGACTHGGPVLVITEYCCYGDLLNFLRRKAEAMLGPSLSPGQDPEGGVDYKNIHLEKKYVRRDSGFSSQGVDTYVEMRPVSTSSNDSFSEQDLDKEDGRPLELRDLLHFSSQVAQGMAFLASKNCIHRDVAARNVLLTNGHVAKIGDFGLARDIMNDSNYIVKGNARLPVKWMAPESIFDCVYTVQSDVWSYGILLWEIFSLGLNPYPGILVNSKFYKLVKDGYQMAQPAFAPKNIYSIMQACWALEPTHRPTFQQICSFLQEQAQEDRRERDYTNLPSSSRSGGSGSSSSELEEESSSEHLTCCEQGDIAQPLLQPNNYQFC

## CCc1nc(NC(=O)N2CCC(C)(C)C2=O)ccc1Oc1ccnc(-c2cnn(C)c2)c1 [Example 3, N-(6-ethyl-5-((2-(1-methyl-1H-pyrazol-4-yl)pyridin-4-yl)oxy)pyridin-2-yl)-3,3-dimethyl-2-oxopyrrolidine-1-carboxamide]
CSF-1R
  IC50: 229 nM
[1]; [2]
  IC50: 687 nM
[1]; [3]
  IC50: 667 nM

## Cc1cc(-c2cc(Oc3ccc(NC(=O)N4CCC(C)(C)C4=O)nc3C)ccn2)ccn1 [Example 4, 3,3-dimethyl-N-(6-methyl-5-((2′-methyl-[2,4′-bipyridin]-4-yl)oxy)pyridin-2-yl)-2-oxopyrrolidine-1-carboxamide]
CSF-1R
  IC50: 42.9 nM
[1]; [2]
  IC50: 213 nM
[1]; [3]
  IC50: 216 nM

## Cc1ncc(-c2cc(Oc3ccc(NC(=O)N4CCC(C)(C)C4=O)nc3C)ccn2)s1 [Example 5, 3,3-dimethyl-N-(6-methyl-5-((2-(2-methylthiazol-5-yl)pyridin-4-yl)oxy)pyridin-2-yl)-2-oxopyrrolidine-1-carboxamide]
CSF-1R
  IC50: 54.7 nM
[1]; [2]
  IC50: 334 nM
[1]; [3]
  IC50: 454 nM

## COCCn1cc(-c2cc(Oc3ccc(NC(=O)N4CCC(C)(C)C4=O)nc3C)ccn2)cn1 [Example 7, N-(5-((2-(1-(2-methoxyethyl)-1H-pyrazol-4-yl)pyridin-4-yl)oxy)-6-methylpyridin-2-yl)-3,3-dimethyl-2-oxopyrrolidine-1-carboxamide]
CSF-1R
  IC50: 72.5 nM
[1]; [2]
  IC50: 203 nM
[1]; [3]
  IC50: 222 nM

## Cc1nc(NC(=O)N2CCC(C)(C)C2=O)ccc1Oc1ccnc(-c2cnn(CCN3CCOCC3)c2)c1 [Example 8, 3,3-dimethyl-N-(6-methyl-5-((2-(1-(2-morpholinoethyl)-1H-pyrazol-4-yl)pyridin-4-yl)oxy)pyridin-2-yl)-2-oxopyrrolidine-1-carboxamide]
CSF-1R
  IC50: 57.9 nM
[1]; [2]
  IC50: 110 nM
[1]; [3]
  IC50: 148 nM

## Cc1nc(NC(=O)N2CCC(C)(C)C2=O)ccc1Oc1ccnc(-c2cn[nH]c2)c1 [Example 9, N-(5-((2-(1H-pyrazol-4-yl)pyridin-4-yl)oxy)-6-methylpyridin-2-yl)-3,3-dimethyl-2-oxopyrrolidine-1-carboxamide]
CSF-1R
  IC50: 80.2 nM
[1]; [2]
  IC50: 193 nM
[1]; [3]
  IC50: 216 nM

## Cc1nc(NC(=O)N2CCC(C)(C)C2=O)ccc1Oc1ccnc(-c2cnn([C@H]3CCOC3)c2)c1 [Example 12, (S)-3,3-dimethyl-N-(6-methyl-5-((2-(1-(tetrahydrofuran-3-yl)-1H-pyrazol-4-yl)pyridin-4-yl)oxy)pyridin-2-yl)-2-oxopyrrolidine-1-carboxamide]
CSF-1R
  IC50: 71.7 nM
[1]; [2]
  IC50: 134 nM
[1]; [3]
  IC50: 158 nM

## Cc1nc(NC(=O)N2CCC(C)(C)C2=O)ccc1Oc1ccnc(-c2cnn(C(C)C)c2)c1 [Example 13, N-(5-((2-(1-isopropyl-1H-pyrazol-4-yl)pyridin-4-yl)oxy)-6-methylpyridin-2-yl)-3,3-dimethyl-2-oxopyrrolidine-1-carboxamide]
CSF-1R
  IC50: 99.7 nM
[1]; [2]
  IC50: 245 nM
[1]; [3]
  IC50: 263 nM

## CCCn1cc(-c2cc(Oc3ccc(NC(=O)N4CCC(C)(C)C4=O)nc3C)ccn2)cn1 [Example 14, 3,3-dimethyl-N-(6-methyl-5-((2-(1-propyl-1H-pyrazol-4-yl)pyridin-4-yl)oxy)pyridin-2-yl)-2-oxopyrrolidine-1-carboxamide]
CSF-1R
  IC50: 46.4 nM
[1]; [2]
  IC50: 115 nM
[1]; [3]
  IC50: 118 nM

## Cc1nc(NC(=O)N2CCC(C)(C)C2=O)ccc1Oc1ccnc(-c2cnn(CC(C)(C)O)c2)c1 [Example 16, N-(5-((2-(1-(2-hydroxy-2-methylpropyl)-1H-pyrazol-4-yl)pyridin-4-yl)oxy)-6-methylpyridin-2-yl)-3,3-dimethyl-2-oxopyrrolidine-1-carboxamide]
CSF-1R
  IC50: 230 nM

## Cc1nc(NC(=O)N2CCC(C)(C)C2=O)ccc1Oc1ccnc(-c2cnn(C3CCN(C)C3)c2)c1 (stereo not shown) [Example 17]
CSF-1R
  IC50: 101 nM

## Cc1nc(NC(=O)N2CCC(C)(C)C2=O)ccc1Oc1ccnc(-c2cnn(C3COC3)c2)c1 [Example 18, 3,3-dimethyl-N-(6-methyl-5-((2-(1-(oxetan-3-yl)-1H-pyrazol-4-yl)pyridin-4-yl)oxy)pyridin-2-yl)-2-oxopyrrolidine-1-carboxamide]
[1]; [4]
  IC50: 125 nM
[1]; [5]
  IC50: 114 nM

## Cc1nc(NC(=O)N2CCC(C)(C)C2=O)ccc1Oc1ccnc(-c2cn(C)cn2)c1 [Example 19, 3,3-dimethyl-N-(6-methyl-5-((2-(1-methyl-1H-imidazol-4-yl)pyridin-4-yl)oxy)pyridin-2-yl)-2-oxopyrrolidine-1-carboxamide]
CSF-1R
  IC50: 176 nM
[1]; [2]
  IC50: 647 nM
[1]; [3]
  IC50: 644 nM

## Cc1nc(NC(=O)N2CCC(C)(C)C2=O)ccc1Oc1ccnc(-c2cnn(C)c2)n1 [Example 22, 3,3-dimethyl-N-(6-methyl-5-((2-(1-methyl-1H-pyrazol-4-yl)pyrimidin-4-yl)oxy)pyridin-2-yl)-2-oxopyrrolidine-1-carboxamide]
CSF-1R
  IC50: 249 nM
[1]; [2]
  IC50: 500 nM
[1]; [3]
  IC50: 500 nM

## CC(=O)Nc1cc(Oc2ccc(NC(=O)N3CCC(C)(C)C3=O)nc2C)ccn1 [Example 23, N-(5-((2-acetylamidopyridin-4-yl)oxy)-6-methylpyridin-2-yl)-3,3-dimethyl-2-oxopyrrolidine-1-carboxamide]
CSF-1R
  IC50: 83 nM
[1]; [2]
  IC50: 384 nM
[1]; [3]
  IC50: 620 nM

## Cc1nc(NC(=O)N2CCC(C)(C)C2=O)ccc1Oc1ccnc(NC(=O)N2CCN(C)CC2)c1 [Example 24, N-(4-((6-(3,3-dimethyl-2-oxopyrrolidine-1-carboxamido)-2-methylpyridin-3-yl)oxy)pyridin-2-yl)-4-methylpiperazine-1-carboxamide]
CSF-1R
  IC50: 56.6 nM
[1]; [2]
  IC50: 164 nM
[1]; [3]
  IC50: 221 nM

## Cc1nc(NC(=O)N2CCC(C)(C)C2=O)ccc1Oc1ccnc(NC(=O)C2CCN(C)CC2)c1 [Example 25, N-(4-((6-(3,3-dimethyl-2-oxopyrrolidine-1-carboxamido)-2-methylpyridin-3-yl)oxy)pyridin-2-yl)-1-methylpiperidine-4-carboxamide]
CSF-1R
  IC50: 1120 nM
[1]; [2]
  IC50: 1990 nM
[1]; [3]
  IC50: 1920 nM

## Cc1nc(NC(=O)N2CCC(C)(C)C2=O)ccc1Oc1ccnc(NC(=O)C2CC2)c1 [Example 26, N-(5-((2-(cyclopropane-carboxamido)pyridin-4-yl)oxy)-6-methylpyridin-2-yl)-3,3-dimethyl-2-oxopyrrolidine-1-carboxamide]
CSF-1R
  IC50: 75.2 nM
[1]; [2]
  IC50: 157 nM
[1]; [3]
  IC50: 161 nM

## CNC(=O)c1cc(Oc2ccc(NC(=O)N3CCC(C)(C)C3=O)nc2C)ccn1 [Example 27, 4-((6-(3,3-dimethyl-2-oxopyrrolidine-1-carboxamido)-2-methylpyridin-3-yl)oxy)-N-methylpicolinamide]
CSF-1R
  IC50: 135 nM
[1]; [2]
  IC50: 441 nM
[1]; [3]
  IC50: 487 nM

## CCCC1(CCC)CCN(C(=O)Nc2ccc(Oc3ccnc(-c4cnn(C)c4)c3)c(C)n2)C1=O [Example 30, N-(6-methyl-5-((2-(1-methyl-1H-pyrazol-4-yl)pyridin-4-yl)oxy)pyridin-2-yl)-2-oxo-3,3-dipropylpyrrolidine-1-carboxamide]
CSF-1R
  IC50: 98.3 nM
[1]; [2]
  IC50: 1160 nM
[1]; [3]
  IC50: 1380 nM

## Cc1nc(NC(=O)N2CCC(C)C2=O)ccc1Oc1ccnc(-c2cnn(C)c2)c1 (stereo not shown) [Example 32, 3-methyl-N-(6-methyl-5-((2-(1-methyl-1H-pyrazol-4-yl)pyridin-4-yl)oxy)pyridin-2-yl)-2-oxopyrrolidine-1-carboxamide]
CSF-1R
  IC50: 324 nM
[1]; [2]
  IC50: 782 nM
[1]; [3]
  IC50: 667 nM

## Cc1nc(NC(=O)N2CCC(C)(OCc3ccccc3)C2=O)ccc1Oc1ccnc(-c2cnn(C)c2)c1 (stereo not shown) [Example 36, 3-(benzyloxy)-3-methyl-N-(6-methyl-5-((2-(1-methyl-1H-pyrazol-4-yl)pyridin-4-yl)oxy)pyridin-2-yl)-2-oxopyrrolidine-1-carboxamide]
[1]; [4]
  IC50: 500 nM
[1]; [5]
  IC50: 727 nM

## COCCC1(C)CCN(C(=O)Nc2ccc(Oc3ccnc(-c4cnn(C)c4)c3)c(C)n2)C1=O (stereo not shown) [Example 37, 3-(2-methoxyethyl)-3-methyl-N-(6-methyl-5-((2-(1-methyl-1H-pyrazol-4-yl)pyridine-4-yl)oxy)pyridin-2-yl)-2-oxopyrrolidine-1-carboxamide]
CSF-1R
  IC50: 207 nM
[1]; [2]
  IC50: 140 nM
[1]; [3]
  IC50: 141 nM

## Cc1nc(NC(=O)N2CCCC2=O)ccc1Oc1ccnc(-c2cnn(C)c2)c1 [Example 38, N-(6-methyl-5-((2-(1-methyl-1H-pyrazol-4-yl)pyridin-4-yl)oxy)pyridin-2-yl)-2-oxopyrrolidine-1-carboxamide]
CSF-1R
  IC50: 1470 nM

## [2H]C([2H])([2H])n1cc(-c2cc(Oc3ccc(NC(=O)N4CCCC(C)(C)C4=O)nc3C)ccn2)cn1 [Example 39, 3,3-dimethyl-N-(6-methyl-5-((2-(1-(methyl-d3)-1H-pyrazol-4-yl)pyridin-4-yl)oxy)pyridin-2-yl)-2-oxopiperidine-1-carboxamide]
CSF-1R
  IC50: 20.2 nM
[1]; [2]
  IC50: 35 nM
[1]; [3]
  IC50: 48.3 nM

## CNc1cc(Oc2ccc(NC(=O)N3CCC(C)(C)C3=O)nc2C)ccn1 [Example 42, 3,3-dimethyl-N-(6-methyl-5-((2-(methylamino)pyridin-4-yl)oxy)pyridin-2-yl)-2-oxopyrrolidine-1-carboxamide]
CSF-1R
  IC50: 2280 nM
[1]; [2]
  IC50: > 2000 nM
[1]; [3]
  IC50: > 2000 nM
